Here are results for five compounds from ChEMBL document CHEMBL1124017, “Synthesis, absolute configuration, and molecular modeling study of etoxadrol, a potent phencyclidine-like agonist” (J Med Chem, 1988).

In one test the target is Glutamate NMDA receptor. Kind of test: Displacement of [3H]TCP from tissue homogenate preparation of whole rat brain minus cerebellum. The test is classed as tissue-based. A general note: Displacement assays read how much labelled ligand stays bound in the presence of the test substance.
The species named for the next test is Rattus norvegicus. Kind of test: Behavioral potency by which rat discriminate phencyclidine from saline in a 2 lever drug discrimination procedure. The test is classed as functional.

As usually defined, the Ki is a dissociation constant, usually derived from enzyme kinetics or from competition with a known ligand. A low value points to higher affinity. As for `CC[C@@]1(c2ccccc2)OC[C@@H]([C@H]2CCCCN2)O1`, at Glutamate NMDA receptor, the inhibition constant (Ki) was found to be 2.3 µM. This compound also came in with an ED50 in the test filed under Rattus norvegicus greater than 100 µM.

As to `CC[C@]1(c2ccccc2)OC[C@H]([C@@H]2CCCCN2)O1` [ETOXADROL], the Ki at Glutamate NMDA receptor is 0.107 µM. Besides, in the test filed under Rattus norvegicus, the ED50 was 2.4 µM.

As for `CC[C@@]1(c2ccccc2)OC[C@H]([C@H]2CCCCN2)O1.CC[C@]1(c2ccccc2)OC[C@H]([C@H]2CCCCN2)O1`, the affinity at Glutamate NMDA receptor corresponds to a Ki of 38 µM. This compound also registered an ED50 in the test listed under Rattus norvegicus greater than 100 µM.

Compound `CC[C@@]1(c2ccccc2)OC[C@H]([C@@H]2CCCCN2)O1` came in with a Ki at Glutamate NMDA receptor of 3.7 µM.

On Glutamate NMDA receptor, `CC[C@@]1(c2ccccc2)OC[C@@H]([C@@H]2CCCCN2)O1.CC[C@]1(c2ccccc2)OC[C@@H]([C@@H]2CCCCN2)O1` returned a Ki of 40 µM. In addition, in the test listed under Rattus norvegicus, the ED50 was greater than 100 µM.
